These are literature values, as cited in US20240165069A1, “METHODS FOR TREATING DYSGEUSIA AND OTHER LINGERING SYMPTOMS ASSOCIATED WITH SEVERE ACUTE RESPIRATORY SYNDROME CORONAVIRUS 2 INFECTIONADN CORONAVIRUS DISEASE 2019” (Nocendra, Inc., priority 2021, published 2024).

The structures appear in SMILES notation.

The test system of the series is oral inflammation. To be noted: Phase 1 trial.

On to `CCCCC[C@@H](O)/C=C/c1ccccc1/C=C/[C@@H](O)[C@@H](O)CCCC(=O)O` [BLXA4, 9,12-benzo-lipoxin A4], for which the safety profile entry (50 subjects receiving drug, oral topical mouth rinse, versus placebo mouth rinse) is recorded as “indistinguishable from placebo mouth rinse in safety profile”. Besides, the “efficacy (reversal of inflammation)” value (oral topical mouth rinse, not powered for efficacy, trends only) was “trends in the efficacy data suggested reversal of inflammation”. In addition, the “pro-resolving lipid mediator shift in serum” value (topical BLXA4, serum of the subjects) is reported as “elicited a pro-resolving lipid mediator shift in the serum”.
